What was measured:
[1] = test system: diabetic male albino rabbits; assay: In vivo pharmacodynamics: blood glucose level in alloxan-induced diabetic rabbits; set-up: species or system rabbit; details: for Blood glucose level (% of initial, % BGL) at maximum decrease: n = 6, oral 10 IU/kg or SC 5 IU/kg, SC standard within first 3 h, Ins-BA hydrogel at 8 h, Ins-Mmt-BA hydrogel NC at 20 h
Experimental: A crossover study was designed to evaluate the insulin intestinal absorption and its release pattern over time from the developed BA hydrogels versus Ins-Mmt-BA hydrogel NCs. For this purpose, under the approval of IREC vide notification number IREC-2020-22, strictly following OECD guidelines, a total of 30 healthy male albino rabbits (≥2 kg weight) were taken. All animals were exposed to 12 h light and darkness cycles for 7 days to acclimatize with ambient atmosphere. For diabetes induction, all rabbits were administered alloxan monohydrate injection (Sigma-Aldrich, Germany) in a single intraperitoneal dose of 150 mg/kg. A 5% glucose solution was administered ad libitum for 24 h to avoid alloxan-induced hypoglycemia. To confirm diabetes induction all, animals’ blood was withdrawn daily from the ear marginal vein for checking blood glucose levels with the help of a glucometer and glucose strips (ACCU-CHEK®, Roche, Basel, Switzerland) for 10 days. Rabbits displaying fasting blood glucose levels higher than 150 mg/dL were considered as diabetic.

[2] = rabbit, in vivo
Experimental: After diabetes induction, the rabbits were placed into 5 groups (n = 6) randomly. The first group was orally administered with ground Ins-BA hydrogel (10 IU/kg) by an oral gavage needle with 5 mL of water to ensure complete dose administration. The second group was given orally the ground Ins-Mmt-BA hydrogel NC (10 IU/kg). The third group, acting as a positive control, was subcutaneously (SC) injected with standard Humulin-R® insulin (5 IU/kg). The fourth group was orally administered with insulin solution (10 IU/kg). The fifth group, acting as a negative control was administered with blank hydrogel. Blood samples were taken at specified intervals (0, 1, 2, 3, 4, 6, 8, 10, 12, 16, 20, 22 and 24 h) from the jugular vein and collected in EDTA containing sample collection tubes. The blood samples were then centrifuged at 3500 rpm for 15 min and separated plasma samples were stored at –20 °C for further detection of insulin by the HPLC method. At the same intervals, blood samples were also checked for blood glucose levels by a glucometer for observing the pharmacodynamic effect of the administered dosage forms [8].
For pharmacokinetic evaluation, a previously developed HPLC method for insulin detection in plasma was used with slight modifications [37]. The HPLC system (Hitachi, Tokyo, Japan) comprising a Gilson delivery pump with a 6-valved sample injection port fitted with a 20 µL sample loop, A UV-visible detector, thermostat column and chromato-integrator were used for sample analysis. The RP-C18 (150 × 4.60 mm ID, 5 µm) analytical column (Phenomenex, Torrance, CA, USA) was used. The mobile phase was prepared by 0.2 M Na2SO4 solution with pH adjusted to 2.3 with orthophosphoric acid mixed with acetonitrile (74:26) and filtered through 0.5 µm membrane filters and sonicated for 10 min to remove dissolved gas bubbles. The stock solution of insulin at 140 µg/mL strength was made in PBS. The serial dilutions of insulin solution (3.5 µg/mL to 140 µg/mL) after filtering through a 0.2 µm membrane filter were injected into a chromatographic column to find the linearity curve to develop a method for insulin detection. The linearity curve with the same serial dilutions of insulin in plasma was also determined. For sample preparation from collected plasma, 200 µL of thawed plasma (collected at different intervals) was mixed with 800 µL of n-hexane:dichloromethane (1:1). The mixture was centrifuged for 10 min at 3500 rpm (Hitachi Zentrifugen EBA 20, Hitachi Ltd., Tokyo, Japan). The supernatant with extracted insulin was used after filtering through a 0.22 µm membrane filter (Sartorius, Göttingen, Germany) for injection into the HPLC system. […]

[3] = cited from earlier work
Excerpt: Humulin® R U-100 (containing human insulin with the strength 100 units/mL) is a sterile, colourless and aqueous solution formulation. It is a short-acting polypeptide hormone produced by an Escherichia coli strain obtained by using recombinant DNA technology. Firstly, it controls blood sugar by inhibiting hepatic glucose production, and secondly, it stimulates glucose uptake from peripheral skeletal muscles and fat cells. When administered subcutaneously (SC), it starts showing therapeutic response within 30 min and its effect lasts up to 8h, with the dose in the range of 0.05–0.4 units/kg. W ...

[4] = intravenous, dose 0.1–0.2 units/kg
[5] = subcutaneous, dose 0.05–0.4 units/kg

| Substance | Blood glucose level (% of initial, % BGL) at maximum decrease [1] | Blood glucose level (% of initial, % BGL) at 8 h ([1]; n = 6, SC 5 IU/kg, 8 h interval) [%] | Cl [2] [mL/h] | Vd [2] [mL] | t1/2 [2] [h] | tmax [2] [h] | Duration of effect after IV administration [3, 4] | Start of pharmacologic effect after IV administration [3, 4] | Duration of effect after SC administration [3, 5] | Start of therapeutic response after SC administration [3, 5] [min] |
| --- | --- | --- | --- | --- | --- | --- | --- | --- | --- | --- |
| oral insulin solution: insulin solution administered orally (10 IU/kg) | no significant decrease in % BGL |  |  |  |  |  |  |  |  |  |
| SC insulin standard: standard Humulin-R human insulin injection, 100 IU/mL, given subcutaneously | 13.55% | 59.67 | 13.361 | 67.326 | 3.493 | 3 | up to 4 h | 10–15 min | up to 8 h | ≤ 30 |

From article PMC9864008, “Novel Black Seed Polysaccharide Extract-g-Poly (Acrylate) pH-Responsive Hydrogel Nanocomposites for Safe Oral Insulin Delivery: Development, In Vitro, In Vivo and Toxicological Evaluation” (Pharmaceutics, 2022)
